From patent publication US10106516B2, “PDE10 inhibitors and related compositions and methods” (Omeros Corporation, priority 2010, dated 2018)

How the values were obtained:
[1] = biological target: T1, PDE10 (Homo sapiens, UniProt Q9Y233); test: PDE10 biochemical assay (two-step Thompson and Appleman method or SPA); conditions: PDE10 inhibition
T1 construct: made in house; host or cells: Sf9 insect cells (baculovirus)
Method: In short, cAMP is spiked with (^3H)cAMP and incubated with PDE10 and various concentrations of a compound of structure (I). After the appropriate incubation time, the reaction is terminated by heating. The mixture is then subjected to treatment with snake venom phosphatase. The phosphatase hydrolyzes any AMP in the mixture, but leaves unreacted cAMP intact. Thus, by separating cAMP from the mixture and determining its concentration (by radiography), the percent of inhibition can be determined. IC50 values can be calculated by performing the experiment at several concentrations using standard graphical means. A detailed description of the actual technique used for IC50 assays as set forth in following Examples.
The phosphodiesterase (PDE) assay was performed using recombinant human PDE 1A3, 2A3, 3 catalytic region, 4 catalytic region, 5 catalytic region, 7A, 8A, 9A2, 10A1 and 11A1 enzymes expressed in a baculoviral system using Sf9 cells. PDE activity was measured using a modification of the two-step method of Thompson and Appleman described above which was adapted for 96 well plate format. […] The final assay volume was 110 μl with assay buffer (10 mM MgCl2; 40 mM Tris.HCl; pH 7.4). Reactions were initiated with enzyme and incubated with (^3H)-substrate and substance for 20 minutes at 30° C. The reaction was terminated by denaturing the enzyme (heating the reaction to 70° C. for 2 minutes). The reaction was then cooled at 4° C. for 10 minutes before the addition of snake venom (Crotalus atrox, 0.2 mg/ml) for 10 minutes at 30° C., thus allowing non-specific hydrolysis of the tritiated substrate. Separation of the remaining unhydrolysed cyclic nucleotide was achieved by a batch binding of the mixture to activated Dowex (200 μl) anion exchange resin. The anion exchange resin bound the charged nucleotides, leaving only hydrolysed (^3H) substrate in the soluble fraction. The soluble fraction (50 μl) was then added to microscint-20 (200 μl) and counted on a Top Count Plate reader. Radioactivity units were plotted against inhibitor concentration and IC50 values obtained using Graph Pad Prism software.
Alternatively, phosphodiesterase activity was measured by scintillation proximity assay (SPA) with [^3H]-cGMP as substrate. Purified PDE10 was diluted and stored in 25 mM Tris-Cl (pH 8.0)/100 mM NaCl/0.05% Tween 20/50% glycerol/3 mM DTT. Assays contained (final concentrations): 50 mM Tris-Cl (pH 7.5)/8.3 mM MgCl2/1.7 mM EGTA/0.5 mg/ml BSA/5% DMSO and 2 ng PDE10 in a final volume of 0.1 mL. Inhibition was evaluated at 8 concentrations in duplicate. Reactions were initiated by addition of enzyme and were terminated after 20 minutes at 30° C. by the addition of 50 μl of SPA beads containing Zn^++. The mixture was shaken, allowed to settle for 3 hours, and counted in a Wallac plate counter. Results (net cpm) were fitted to a four parameter logistic model using Excel Solver®.

[2] = tested on: C57BL/6 male mice; test: PCP-induced hyperactivity model of psychosis; type: in vivo; conditions: vs vehicle+PCP control
Method: (§1) Dosing of the compounds is by intraperitoneal (i.p.) injection or oral gavage (p.o.). Intraperitoneal injection is accomplished by restraining the animal, exposing the abdomen and inserting the needle just above the knees on the mouse's right side. Oral gavage is performed by restraining the animal in such a way that its head is tilted back and the esophagus is relatively straight. The gavage needle (20 G×1.5″, Cadence Science) is inserted into the mouth in line with the body and gently pushed along the esophagus and into the stomach. If resistance is encountered the needle is removed and reinserted.
Psychostimulant-induced hyperactivity is measured by injecting animals with PCP and monitoring the animals' activity levels in VersaMax chambers (Accuscan Instruments, Columbus, Ohio) measuring 40×40 cm. Locomotor activity is detected by photobeam breaks as the animal crosses each beam. The animal is placed in the center of the field and left undisturbed for 20 minutes to measure its spontaneous activity in a novel environment. Measurements used to assess locomotor activity include: horizontal activity, total distance traveled, vertical activity (rearing events—animal raises up on hindlimbs), rotation, stereotypy, and distance traveled in the center compared to total distance traveled (center:total distance ratio). The NMDA antagonist PCP induces a psychosis-like syndrome manifest as hyperactivity and increased stereotypic behavior. Known antipsychotics are able to reverse psychostimulant-induced hyperactivity and stereotypy.
(§2) C57BL/6 male mice were given either compound 1-1 or vehicle by intraperitoneal injection (FIG. 1) or oral gavage (FIG. 2). Twenty minutes (for i.p.) or forty minutes (for p.o.) later, they were injected with PCP (5 mg/kg, i.p.). Ten minutes later, the mice were placed in activity chambers and their locomotor activity in the horizontal dimension was monitored by infrared beam breaks for 20 min (5 consecutive 4-minute intervals (INT) as indicated).
as §2, with “2-1” for “1-1”, “3)” for “1)”, “4).” for “2).”, “40” for “forty”
as §2, with “11-1” for “1-1”, “injection. Five” for “injection (FIG. 1) or oral gavage (FIG. 2). Twenty”, “later” for “(for i.p.) or forty minutes (for p.o.) later,”

[3] = tested on: C57BL/6 male mice; test: Conditioned avoidance response (CAR) model of psychosis; type: in vivo; conditions: vs vehicle
Method: as §1
Conditioned avoidance response (CAR) is a behavioral test to evaluate the antipsychotic effect of a test compound. It utilizes a shuttle box (Med Associates, St. Albans, Vt.) with two identical chambers separated by a retractable door. Each chamber is fitted with a metal grid floor that is capable of delivering electric shocks independently. A computer program is used to implement the testing paradigm as well as record the animal's movement between the two chambers through infrared beam sensors. The testing paradigm is as follows. A mouse is placed into one chamber. A light (conditioned stimulus, CS) comes on. Five seconds later, mild electric shocks (0.4 mA; (unconditioned stimulus, US) are delivered to the chamber where the mouse is located (as detected by infrared beams) until the mouse escapes to the adjacent chamber or until 10 sec has elapsed. The US and CS always co-terminate. With randomized inter-trial intervals averaging 15 sec, 30 such CS-US pairing trials are given to each mouse each day. For each trial, an escape response is registered if the mouse crosses to the other chamber after being shocked (i.e., during the 10-sec US period), and an avoidance response is registered if the mouse crosses to the other chamber during the first 5-sec CS only period. The animals are trained in this paradigm for 30-40 days, during which the average percentage of avoidance responses will improve to 80-90%. […] These trained animals are then used for compound testing with the same paradigm.
C57BL/6 male mice were trained in the CAR paradigm to predict and avoid the noxious stimulus (foot shock), reaching a plateau of approximately 25 avoidance responses per 30 trials each day. […] Vehicle treatment and compound treatment were given to the same animals on alternating days, and the effect of compound in reducing avoidance response was analyzed through within-subject comparison (paired t-test).
C57BL/6 male mice were trained in the CAR paradigm to predict and avoid the noxious stimulus (foot shock), reaching a plateau of approximately 25-28 avoidance responses per 30 trials (“training plateau”) each day. […] Vehicle treatment and compound treatment were given to the same animals on alternating days, and the effect of compound in reducing avoidance response was analyzed through within-subject comparison (paired t-test).

[4] = tested on: PDE10; conditions: Soderling and Beavo 2000, read-out: IC50 (50% inhibitory concentration); cited from earlier work
[5] = 10 mg/kg i.p., 20 min before PCP (5 mg/kg, i.p.)
[6] = 10 mg/kg oral gavage, 25 minutes prior to testing
[7] = 2 mg/kg oral gavage, 55 minutes prior to testing
[8] = 5 mg/kg oral gavage, 55 minutes prior to testing
[9] = 10 mg/kg oral gavage, 55 minutes prior to testing

T1 sequence (Q9Y233 1-779 isoform Q9Y233-1): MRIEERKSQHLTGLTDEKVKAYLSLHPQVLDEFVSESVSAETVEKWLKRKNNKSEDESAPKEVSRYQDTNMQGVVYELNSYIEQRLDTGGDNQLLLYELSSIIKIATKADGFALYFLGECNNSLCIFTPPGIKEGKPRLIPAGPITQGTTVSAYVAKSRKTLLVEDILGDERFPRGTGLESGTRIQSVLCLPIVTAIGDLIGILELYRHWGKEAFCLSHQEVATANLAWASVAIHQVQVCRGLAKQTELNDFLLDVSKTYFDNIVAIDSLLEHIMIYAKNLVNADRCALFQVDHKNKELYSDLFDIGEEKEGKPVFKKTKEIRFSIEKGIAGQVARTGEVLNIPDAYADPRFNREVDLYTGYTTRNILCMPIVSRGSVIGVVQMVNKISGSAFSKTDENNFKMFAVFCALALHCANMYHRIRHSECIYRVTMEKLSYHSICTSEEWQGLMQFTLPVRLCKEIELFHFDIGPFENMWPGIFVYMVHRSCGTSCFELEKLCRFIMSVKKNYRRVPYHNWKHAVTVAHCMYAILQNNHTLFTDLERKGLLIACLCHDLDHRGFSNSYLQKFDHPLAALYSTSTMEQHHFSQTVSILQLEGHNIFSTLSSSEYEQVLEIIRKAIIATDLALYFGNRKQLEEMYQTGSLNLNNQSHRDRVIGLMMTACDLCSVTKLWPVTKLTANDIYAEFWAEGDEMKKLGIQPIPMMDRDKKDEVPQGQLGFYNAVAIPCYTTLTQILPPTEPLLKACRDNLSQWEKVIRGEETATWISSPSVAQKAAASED

Compound	IC50 [1] [nM]	reduction of number of avoidance responses (CAR) [3, 8]	reduction of number of avoidance responses (CAR) [3, 9]	other results
COc1cc(-c2csc(C(=O)C(OC)c3ccc(N4CCOCC4)cc3)n2)cc(OC)c1Br (stereo not shown) [Compound 1-1, 1-(4-(4-Bromo-3,5-Dimethoxyphenyl)Thiazol-2-Yl)-2-Methoxy-2-(4-Morpholinophenyl)Ethanone]	≤ 1000			reduction of PCP-induced hyperactivity (horizontal locomotor activity) [2, 5]: significantly reduces; reduction of PCP-induced hyperactivity (horizontal locomotor activity) ([2]; oral gavage, dose not given, 40 min before PCP (5 mg/kg, i.p.)): effective
COc1cc(-c2coc(C(=O)C(OC)c3ccc(N4CCOCC4)cc3)n2)cc(OC)c1Br (stereo not shown) [Compound 2-1, 1-(4-(4-Bromo-3,5-Dimethoxyphenyl)Oxazol-2-Yl)-2-Methoxy-2-(4-Morpholinophenyl)-Ethanone]	≤ 1000			reduction of PCP-induced hyperactivity (horizontal locomotor activity) [2, 5]: significantly reduces; reduction of PCP-induced hyperactivity (horizontal locomotor activity) ([2]; 10 mg/kg oral gavage, 40 min before PCP (5 mg/kg, i.p.)): effective; reduction of number of avoidance responses (CAR) ([3]; 12 mg/kg oral gavage, 30 minutes before testing): significantly reduces
COc1cc(-c2coc(C(=O)C(OC)c3ccc(-c4nnc(C)o4)cc3)n2)cc(OC)c1Br (stereo not shown) [Compound 11-1, 1-(4-(4-Bromo-3,5-Dimethoxyphenyl)Oxazol-2-Yl)-2-Methoxy-2-(4-(5-Methyl-1,3,4-Oxadiazol-2-Yl)Phenyl)Ethanone]	≤ 1000			reduction of PCP-induced hyperactivity (horizontal locomotor activity) ([2]; 10 mg/kg i.p., 5 min before PCP (5 mg/kg, i.p.)): significantly reduces
COc1cc(-c2ccc(C(=O)C(OC)c3ccc(-c4nnc(C)s4)cc3)o2)cc(OC)c1Br (stereo not shown) [Compound 34-1, 1-(5-(4-Bromo-3,5-Dimethoxyphenyl)Furan-2-Yl)-2-Methoxy-2-(4-(5-Methyl-1,3,4-Thiadiazol-2-Yl)Phenyl)Ethanone]	≤ 1000			reduction of number of avoidance responses (CAR) [3, 6]: significantly reduces
COc1cc(-c2ccc(C(=O)C(OC)c3ccc(-c4nnc(C)o4)cc3)o2)cc(OC)c1OC (stereo not shown) [Compound 36-1, 2-Methoxy-2-(4-(5-Methyl-1,3,4-Oxadiazol-2-Yl)Phenyl)-1-(5-(3,4,5-Trimethoxyphenyl)Furan-2-Yl)Ethanone]	≤ 1000			reduction of number of avoidance responses (CAR) ([3]; 5 mg/kg oral gavage, 25 minutes prior to testing): a trend that did not reach significance; reduction of number of avoidance responses (CAR) [3, 6]: a trend that did not reach significance; reduction of number of avoidance responses (CAR) ([3]; 15 mg/kg oral gavage, 25 minutes prior to testing): significantly reduces
CCOC(C(=O)c1ccc(-c2cc(OC)c(Br)c(OC)c2)o1)c1ccc(-c2nnc(C)o2)cc1 (stereo not shown) [Compound 47-1, 1-(5-(4-Bromo-3,5-Dimethoxyphenyl)Furan-2-Yl)-2-Ethoxy-2-(4-(5-Methyl-1,3,4-Oxadiazol-2-Yl)Phenyl)Ethanone]	≤ 1000	significantly reduces	significantly reduces	reduction of number of avoidance responses (CAR) [3, 7]: a trend that did not reach significance
COc1cc(-c2ccc(C(=O)C(OC)c3ccc(-c4nnc(C)s4)cc3)o2)cc(OC)c1Cl (stereo not shown) [Compound 49-1, 1-(5-(4-Chloro-3,5-Dimethoxyphenyl)Furan-2-Yl)-2-Methoxy-2-(4-(5-Methyl-1,3,4-Thiadiazol-2-Yl)Phenyl)Ethanone]	≤ 1000		significantly reduces	
COc1cc(-c2ccc(C(=O)C(OC)c3ccc(-c4nnc(C)o4)cc3)o2)cc(OC)c1Cl (stereo not shown) [Compound 61-1, 1-(5-(4-Chloro-3,5-Dimethoxyphenyl)Furan-2-Yl)-2-Methoxy-2-(4-(5-Methyl-1,3,4-Oxadiazol-2-Yl)Phenyl)Ethanone]	≤ 1000	significantly reduces	significantly reduces	reduction of number of avoidance responses (CAR) [3, 7]: significantly reduces
CCOC(C(=O)c1ccc(-c2cc(OC)c(Cl)c(OC)c2)o1)c1ccc(-c2nnc(C)o2)cc1 (stereo not shown) [Compound 63-1, 1-(5-(4-Chloro-3,5-Dimethoxyphenyl)Furan-2-Yl)-2-Ethoxy-2-(4-(5-Methyl-1,3,4-Oxadiazol-2-Yl)Phenyl)Ethanone]	≤ 1000	significantly reduces	significantly reduces	reduction of number of avoidance responses (CAR) [3, 7]: significantly reduces
CCOC(C(=O)c1ccc(-c2cc(OC)c(Cl)c(OC)c2)o1)c1ccc(-c2nnc(C)s2)cc1 (stereo not shown) [Compound 65-10]	≤ 1000	significantly reduces	significantly reduces	
COc1cc(-c2ccc(C(=O)C(OC)c3ccc(-c4nnc(C)o4)cc3)o2)cc(OC)c1O (stereo not shown) [Compound 65-15]	≤ 1000			
CC(C)Cn1c(=O)n(C)c(=O)c2[nH]cnc21 [IBMX]				IC50 [4]: 2600 nM
